{
  "source": "patent US4103004A",
  "about": "“Cardiotonic agent” (University of Hawaii, priority 1977, dated 1978)",
  "key": {"Isoelectric focusing": {"assay": "Isoelectric focusing", "assay_type": "physicochemical", "settings": "doubly purified material", "from_the_text": "For the purpose of obtaining electrophoretic properties, the anthopleurin-Cobtained in Example 1, Steps a through d below, was rechromatographed on CM Sephadex C-25, and G-10 according to the process set forth in Example 1, Steps c, and d, respectively. The doubly purified material was subjected to electrophoretic analysis using commercially available pre-cast 12% acrylamide gels and matched buffer systems obtained from Bio·Rad Laboratories, 32nd and Griffin, Richmond, California.\nIsoelectric focusing gave the isoelectric point at a pH = 8.0. Disc gel electrophoresis with 12% polyacrylamide gel at pH 3.6 gave an Rf value of 0.49 versus methyl green tracking dye. […] Sodium dodecyl sulfate (SDS) disc gel electrophoresis using a 10% gel indicated a m.w. of about 5,200 after incubation with dithioerythritol, using RNase A and pancreatic trypsin inhibitor (PTI) for comparison. The molecular weight is so low that these values are only approximate."}, "isolated rat atria": {"tested_on": "isolated rat atria", "assay": "Bioassay for positive inotropic effect on isolated rat atria", "assay_type": "cell-based", "description": "Bioassay for Determining Positive Inotropic Effect\nBioassays of the solutions containing anthopleurin-C are performed on isolated atria of rat hearts. The atrium is separated from the rest of the heart and suspended in an isolated organ bath (20, 25, or 50 ml.) containing Krebs Ringer bicarbonate medium (pH 7.4) of the following composition in distilled deionized water (in mmoles): Na^+, 145; K^+, 6.02; Ca^+2, 1.22; Mg^+2, 1.33; Cl^-, 126; HCO3^-, 25.3; PO4^-3, 1.2; SO4^-2, 1.33; and glucose, 5.5. The temperature of the organ bath is maintained at 30° C., and the Krebs-Ringer medium is continuously aerated with 95% O2 --5% CO2.\nThe spontaneously beating atrial preparation is connected by a thin silk thread to a force-displacement transducer (Grass model FT.03), and the contractile movements are recorded on a six-channel polygraph Grass Model 7. The preparation is allowed to equilibrate under 750 mg. tension for 60 minutes prior to beginning an assay. After this equilibration, during which the preparations are washed out every 30 minutes, the spontaneous beat rate of the atria remains constant; the change during a 10-minute observation being less than 5 beats/min. The changes in contractile force and rate produced by the test solution containing anthopleurin-C is expressed as a percentage increase or decrease in tension and rhythm, with the period immediately preceding addition of test solution to the tissue bath as the baseline for comparison."}, "[1]": {"assay": "Solubility in deionized water", "assay_type": "physicochemical"}, "[2]": {"assay": "Stability at neutral and lower pH", "assay_type": "physicochemical", "settings": "neutral and lower pH values"}},
  "data": [
    {"substance": "anthopleurin-C", "values": [
      {"measurement": "isoelectric point", "setting": "Isoelectric focusing", "value": 8.0, "unit": "pH"},
      {"measurement": "potency relative to ouabain in positive inotropic effect", "setting": "isolated rat atria; fold as potent as ouabain", "value": "200-1000 x"},
      {"measurement": "ED50, positive inotropic effect", "setting": "isolated rat atria; isolated rat atria", "value": 3, "unit": "nM"},
      {"measurement": "chronotropic effect", "setting": "isolated rat atria; isolated rat atria", "value": "does not show any chronotropic effect"},
      {"measurement": "solubility", "setting": "[1]", "value": "very soluble"},
      {"measurement": "stability", "setting": "[2]", "value": "relatively stable"}
    ]}
  ]
}
